Assay results as given in patent publication US20140323300A1, “HERBICIDAL COMPOUNDS” (SYNGENTA LIMITED, priority 2011, published 2014).

Columns and labels:
Format in all cases: in vivo
[1] = tested on: Alopecurus myosuroides (ALOMY); assay: Post-emergence glasshouse herbicide test; conditions: post-emergence (sprayed after 8 days cultivation), 1000 g/h, evaluated after 13 days, five point scale
Outline: (§1)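 Damage was rated 13 days after treatment on a five-point scale (1 = 0–19%, 5 = 80–100%). The compound, formulated in 50:50 acetone/water with 0.5% Tween 20, was sprayed at 1000 g/h on pots one day (pre) or 8 days (post) after sowing, kept in a glasshouse at 24/16° C, 14 h light, 65% humidity.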

[2] = tested on: Amaranthus retoflexus (AMARE); assay: Post-emergence glasshouse herbicide test; conditions: post-emergence (sprayed after 8 days cultivation), 1000 g/h, evaluated after 13 days, five point scale
Outline: as §1

[3] = tested on: Echinochloa crus-galli (ECHCG); assay: Post-emergence glasshouse herbicide test; conditions: post-emergence (sprayed after 8 days cultivation), 1000 g/h, evaluated after 13 days, five point scale
Outline: as §1

[4] = tested on: Ipomoea hederacea (IPOHE); assay: Post-emergence glasshouse herbicide test; conditions: post-emergence (sprayed after 8 days cultivation), 1000 g/h, evaluated after 13 days, five point scale
Outline: as §1

Setaria faberi (SETFA) [5] = assay: Post-emergence glasshouse herbicide test; conditions: post-emergence (sprayed after 8 days cultivation), 1000 g/h, evaluated after 13 days, five point scale
Outline: as §1

Solanum nigrum (SOLNI) [6] = assay: Post-emergence glasshouse herbicide test; conditions: post-emergence (sprayed after 8 days cultivation), 1000 g/h, evaluated after 13 days, five point scale
Outline: as §1

[7] = tested on: Alopecurus myosuroides (ALOMY); assay: Pre-emergence glasshouse herbicide test; conditions: pre-emergence (sprayed after one day cultivation), 1000 g/h, evaluated after 13 days, five point scale
Outline: as §1

[8] = tested on: Amaranthus retoflexus (AMARE); assay: Pre-emergence glasshouse herbicide test; conditions: pre-emergence (sprayed after one day cultivation), 1000 g/h, evaluated after 13 days, five point scale
Outline: as §1

[9] = tested on: Echinochloa crus-galli (ECHCG); assay: Pre-emergence glasshouse herbicide test; conditions: pre-emergence (sprayed after one day cultivation), 1000 g/h, evaluated after 13 days, five point scale
Outline: as §1

[10] = tested on: Ipomoea hederacea (IPOHE); assay: Pre-emergence glasshouse herbicide test; conditions: pre-emergence (sprayed after one day cultivation), 1000 g/h, evaluated after 13 days, five point scale
Outline: as §1

Setaria faberi (SETFA) [11] = assay: Pre-emergence glasshouse herbicide test; conditions: pre-emergence (sprayed after one day cultivation), 1000 g/h, evaluated after 13 days, five point scale
Outline: as §1

Solanum nigrum (SOLNI) [12] = assay: Pre-emergence glasshouse herbicide test; conditions: pre-emergence (sprayed after one day cultivation), 1000 g/h, evaluated after 13 days, five point scale
Outline: as §1

Row | SMILES | percentage damage caused to the plant, POST Application ALOMY [1] | percentage damage caused to the plant, POST Application AMARE [2] | percentage damage caused to the plant, POST Application ECHCG [3] | percentage damage caused to the plant, POST Application IPOHE [4] | percentage damage caused to the plant, POST Application SETFA (Setaria faberi (SETFA) [5]) | percentage damage caused to the plant, POST Application SOLNI (Solanum nigrum (SOLNI) [6]) | percentage damage caused to the plant, PRE Application ALOMY [7] | percentage damage caused to the plant, PRE Application AMARE [8] | percentage damage caused to the plant, PRE Application ECHCG [9] | percentage damage caused to the plant, PRE Application IPOHE [10] | percentage damage caused to the plant, PRE Application SETFA (Setaria faberi (SETFA) [11]) | percentage damage caused to the plant, PRE Application SOLNI (Solanum nigrum (SOLNI) [12])
1 | CSc1cnn(-c2ccc(C(F)(F)F)nc2C)c(=O)c1O [Compound 1.025] | 2 (2=20-39%) | 5 (5=80-100%) | 5 (5=80-100%) | 5 (5=80-100%) | 5 (5=80-100%) | 5 (5=80-100%) | 2 (2=20-39%) | 5 (5=80-100%) | 5 (5=80-100%) | 5 (5=80-100%) | 5 (5=80-100%) | 5 (5=80-100%)
2 | CS(=O)(=O)c1ccc(-n2ncc(Cl)c(O)c2=O)c(Cl)c1C1=NOCC1 [Compound 1.017] | 5 (5=80-100%) | 5 (5=80-100%) | 5 (5=80-100%) | 5 (5=80-100%) | 5 (5=80-100%) | 5 (5=80-100%) | 5 (5=80-100%) | 5 (5=80-100%) | 5 (5=80-100%) | 5 (5=80-100%) | 5 (5=80-100%) | 5 (5=80-100%)
3 | Cc1nc(C(F)(F)F)ccc1-n1ncc(Cl)c(O)c1=O [Compound 1.019] | 5 (5=80-100%) | 5 (5=80-100%) | 5 (5=80-100%) | 5 (5=80-100%) | 5 (5=80-100%) | 5 (5=80-100%) | 5 (5=80-100%) | 5 (5=80-100%) | 5 (5=80-100%) | 5 (5=80-100%) | 5 (5=80-100%) | 5 (5=80-100%)
4 | Cc1c(-n2ncc(C(C)C)c(O)c2=O)ccc(S(C)(=O)=O)c1C1=NOCC1 [Compound 1.010] | 5 (5=80-100%) | 5 (5=80-100%) | 5 (5=80-100%) | 5 (5=80-100%) | 5 (5=80-100%) | 5 (5=80-100%) | 3 (3=40-59%) | 5 (5=80-100%) | 3 (3=40-59%) | 1 (1=0-19%) | 2 (2=20-39%) | 1 (1=0-19%)
5 | C=Cc1cnn(-c2ccc(S(C)(=O)=O)c(C3=NOCC3)c2C)c(=O)c1O [Compound 1.006] | 4 (4=60-79%) | 5 (5=80-100%) | 5 (5=80-100%) | 5 (5=80-100%) | 5 (5=80-100%) | 5 (5=80-100%) | 1 (1=0-19%) | 5 (5=80-100%) | 5 (5=80-100%) | 4 (4=60-79%) | 4 (4=60-79%) | 5 (5=80-100%)
6 | C=C(C)c1cnn(-c2ccc(C(F)(F)F)nc2C)c(=O)c1O [Compound 1.024] | 5 (5=80-100%) | 5 (5=80-100%) | 5 (5=80-100%) | 5 (5=80-100%) | 5 (5=80-100%) | 5 (5=80-100%) | 5 (5=80-100%) | 5 (5=80-100%) | 5 (5=80-100%) | 5 (5=80-100%) | 5 (5=80-100%) | 5 (5=80-100%)
7 | CCc1cnn(-c2ccc(C(F)(F)F)cc2S(C)(=O)=O)c(=O)c1O [Compound 1.045] | 5 (5=80-100%) | 5 (5=80-100%) | 5 (5=80-100%) | 5 (5=80-100%) | 5 (5=80-100%) | 5 (5=80-100%) | 5 (5=80-100%) | 5 (5=80-100%) | 5 (5=80-100%) | 5 (5=80-100%) | 5 (5=80-100%) | 5 (5=80-100%)
8 | Cc1nc(C(F)(F)F)ccc1-n1ncc(Br)c(O)c1=O [Compound 1.023] | 3 (3=40-59%) | 5 (5=80-100%) | 5 (5=80-100%) | 5 (5=80-100%) | 5 (5=80-100%) | 5 (5=80-100%) | 3 (3=40-59%) | 5 (5=80-100%) | 5 (5=80-100%) | 5 (5=80-100%) | 5 (5=80-100%) | 5 (5=80-100%)
9 | Cc1cnn(-c2ccc(S(C)(=O)=O)c(C3=NOCC3)c2C)c(=O)c1O [Compound 1.016, 2-[3-(4,5-dihydroisoxazol-3-yl)-2-methyl-4-methylsulfonyl-phenyl]-4-hydroxy-5-methyl-pyridazin-3-one] | 5 (5=80-100%) | 5 (5=80-100%) | 5 (5=80-100%) | 5 (5=80-100%) | 5 (5=80-100%) | 5 (5=80-100%) | 5 (5=80-100%) | 5 (5=80-100%) | 5 (5=80-100%) | 4 (4=60-79%) | 5 (5=80-100%) | 5 (5=80-100%)
